Laboratory results: publication PMC2362691, “A phase I study of the lipophilic thymidylate synthase inhibitor Thymitaq™ (nolatrexed dihydrochloride) given by 10-day oral administration” (British Journal of Cancer, 1999)
Several values for one entry are separate records, joined by “and”; a condition that tells them apart may be missing. Equal entries are not always repeated. Where two headings read alike, the source gives them in different places.

Assays:
[1] = set-up: method as in Jodrell et al, 1991; details: ref Jodrell et al, 1991; cited from earlier work
[2] = set-up: method as in earlier work; details: clinical trial, ref Calvert et al, 1986, 1987, Bassendine et al, Cantwell et al, 1988; cited from earlier work
thymidylate synthase = assay: Plasma deoxyuridine (dUrd) concentrations, pretreatment vs day 10; type: in vivo, cancer patients
[3] = in vivo
[4] = rats fasted before treatment, introduction, no reference given, cited from earlier work
[5] = no reference given, cited from earlier work; for bioavailability of proposed clinical formulation: capsules with microcrystalline cellulose and crospovidone, dosing preceded and followed by water gavage
[6] = set-up: method as in Rafi et al, 1996; details: patients, 5-day oral administration; ref Rafi et al, 1996; cited from earlier work
[7] = set-up: method as in Rafi et al, 1995; details: continuous 24-h infusion, ref Rafi et al, 1995, cited from earlier work
[8] = cited from earlier work
[9] = cited from earlier work; remark: listed apart in the source
[10] = Phase I study of 10-day oral nolatrexed (6 hourly, every 21 days): toxicity by CTC grade; details: 6 hourly for 10 days, repeated at 3-weekly intervals (143 mg m-2 every 6 h)
[11] = 10-day intravenous infusion, 716 mg m-2 day-1, ref Creaven et al (1998)
[12] = 5-day intravenous infusion, ref Rafi et al, 1998

Compound: Cc1nc2ccc(CN(C)c3ccc(C(=O)N[C@@H](CCC(=O)O)C(=O)O)s3)cc2c(=O)[nH]1 [raltitrexed]
- nephrotoxicity [1]: non-nephrotoxic

Compound: C#CCN(Cc1ccc2nc(N)[nH]c(=O)c2c1)c1ccc(C(=O)N[C@@H](CCC(=O)O)C(=O)O)cc1 [CB 3717, N10-propargyl-5,8-dideazafolic acid]
- toxicity that led to abandoned development [2]: sporadic and unpredictable nephrotoxicity and myelotoxicity

Compound: Cc1ccc2nc(N)[nH]c(=O)c2c1Sc1ccncc1.Cl.Cl [nolatrexed, 2-Amino-3,4-dihydro-6-methyl-4-oxo-5-(4-pyridylthio)-quinazoline dihydrochloride]
- elevation in plasma dUrd compared with baseline (thymidylate synthase; 429 mg m-2 day-1, in three out of four patients with data): > 75%
- rise of plasma dUrd concentration, median (thymidylate synthase; day 10 vs pretreatment, 12 out of 23 patients, all dose levels): 90 % of baseline
- dose level that could be considered for phase II testing ([3]; human, 10 days): 429 mg m-2 day-1
- doses at which thrombocytopenia (grade 1 or 2) occurred ([3]; human, po, 10 days): ≥ 318 mg m^−2day^−1
- additional patients with increased sensitivity to sunlight, no apparent rash [3]: five
- patients with elevation of serum bilirubin [3]: nine
- patients with skin rash [3]: eight
- patients who achieved disease stabilization (human, in vivo): three
- patients with progressive disease on treatment (ten out of 23 patients had evaluable disease): seven
- oral bioavailability ([4]; 20 mg kg-1 (120 mg m-2)): 53%
- oral bioavailability ([4]; 40 mg kg-1 (240 mg m-2)): 50%
- oral bioavailability ([4]; 80 mg kg-1 (480 mg m-2)): 30%
- bioavailability of proposed clinical formulation ([5]; one dog): 70% and 107%
- bioavailability of proposed clinical formulation ([5]; second dog): 87%
- bioavailability ([5]; dogs fasted overnight, in 5% dextrose by gavage, introduction): > 90%
- oral bioavailability [6]: 70–100%
- systemic toxicity ([7]; maximum dose administered 1073 mg m-2): no systemic toxicity
- local toxicity (phlebitis), CTC grade [7]: 2 CTC grade
- patients who completed the dose level [8, 11]: zero out of three
- patients with grade 4 myelosuppression [8, 11]: two out of three
- patients with dose-limiting myelosupression ([8]; in vivo, iv): one out of four
- duration of partial response ([9]; 5-day intravenous infusion, one patient with metastatic colorectal cancer, ref Rafi et al, 1998): 3 months
- dose-limiting toxicity [9, 12]: neutropenia
- maximum tolerated dose [9, 12]: 904 mg m-2 day-1
- recommended phase II dose [9, 12]: 800 mg m-2 day-1
- clearance ([9]; supported by median trough values of this study, ref Rafi et al (1998)): dose dependent
- maximum tolerated dose [10]: 572 mg m-2 day-1
